Data reported in publication PMC4264192, “Synthesis and Biological Evaluation of 2-Thioxopyrimidin-4(1H)-one Derivatives as Potential Non-Nucleoside HIV-1 Reverse Transcriptase Inhibitors” (International Journal of Molecular Sciences, 2014).
Read-outs that look alike come from different tables or passages of the source.

What was measured:
HIV-1 = assay: Inhibition of HIV-1 replication in MT-4 cells (HIV-1 antigen ELISA or MTT); assay type: cell-based, human immunodeficiency virus type 1; conditions: for IC50: Human immunodeficiency virus 1, MT4, 144 h, read-out: IC50, 50% inhibitory concentration (anti-HIV-1 activity); for Selectivity index (SI), CC50/IC50 / activity against HIV-1 replication (in words): MT-4 cells; for Selectivity index (SI), CC50/IC50: ratio CC50/IC50; for activity against HIV-1 replication (in words): less than 30% reduction of HIV expression considered without biological activity; for EC50: Human immunodeficiency virus 1, MT4, read-out: EC50 against wild-type HIV-1
Text: Compounds mediating less than 30% reduction of HIV expression were considered without biological activity.

[1] = Cytotoxic effect in uninfected MT-4 cultures; assay type: cell-based; conditions: human, uninfected MT-4 cells; read-out: CC50, 50% cytotoxic concentration
[2] = HIV-1 in MT-4 cells, six days, 0.005 MOI

SMILES | IC50 (HIV-1; [2]) [µM] | Selectivity index (SI), CC50/IC50 (HIV-1) | CC50 at 6 days [1] [µM] | melting point [°C] | further results
Cc1cn([C@H]2C[C@H](N=[N+]=[N-])[C@@H](CO)O2)c(=O)[nH]c1=O [AZT, azidothymidine, reference compound] | 0.04 | 1,300 | 52 |  | 
C=CCc1c(Cc2ccccc2)nc(SC)[nH]c1=O [Compound 2a, 5-Allyl 6-(benzyl)-2-(methylthio)pyrimidin-4(3H)-one] | 26.8 | >3 | > 100 | 214 to 216 | 
C=CCc1c(Cc2ccccc2)nc(SCCO)[nH]c1=O [Compound 2b, 2-(2-Hydroxyethylthio)-5-allyl-6-benzylpyrimidin-4(3H)-one] |  |  |  | 164 to 166 | 
C=CCc1c(Cc2ccccc2)nc(SCCCBr)[nH]c1=O [Compound 2c, 2-(3-Bromopropylthio)-5-allyl-6-benzylpyrimidin-4(3H)-one] |  |  |  | 138 to 140 | activity against HIV-1 replication (in words) (HIV-1): inactive
C=CCc1c(Cc2ccccc2)nc(SCCCCCC)[nH]c1=O [Compound 2d, 5-Allyl-6-benzyl-2-(hexylthio)pyrimidin-4(3H)-one] |  |  | 35 | 153 to 155 | IC50 (HIV-1): 7 µM
C=CCSc1nc(Cc2ccccc2)c(CC=C)c(=O)[nH]1 [Compound 2e, 5-Allyl 6-benzyl-2-(allylthio)pyrimidin-4(3H)-one] |  |  | 25 | 114 to 116 | IC50 (HIV-1): 2.5 µM; EC50 (HIV-1): 2.5 µM
C=CCc1c(Cc2ccccc2)nc(SCCOCOC)[nH]c1=O [Compound 2f, 5-Allyl-6-benzyl-2-(2-(methoxymethoxy)ethylthio)pyrimidin-4(3H)-one] |  |  |  | 188 to 190 | 
C=CCc1c(Cc2ccccc2)nc(SCCOCOCCBr)[nH]c1=O [Compound 2g, 5-Allyl-6-benzyl-2-(2-((2-bromoethoxy)methoxy)ethylthio)pyrimidin-4(3H)-one] |  |  |  | 192 to 194 | 
C=CCc1c(Cc2ccccc2)nc(SCC(C)C)[nH]c1=O [Compound 2h, 5-Allyl-6-benzyl-2-(isobutylthio)pyrimidin-4(3H)-one] | 1 | >100 | > 100 | 134 to 136 | 
C=CCc1c(Cc2ccccc2)nc(SCC(CC)CC)[nH]c1=O [Compound 2i, 5-Allyl-6-benzyl-2-(2-ethylbutylthio)pyrimidin-4(3H)-one] |  |  |  | 141 to 143 | 
C=CCc1c(Cc2ccccc2)nc(SC2CCCC2)[nH]c1=O [Compound 2j, 5-Allyl 6-benzyl-2-(cyclopentylthio)pyrimidin-4(3H)-one] | 2.6 |  | > 100 |  | EC50 (HIV-1): 2.6 µM
C=CCc1c(Cc2ccccc2)nc(SC2CCOC2=O)[nH]c1=O (stereo not shown) [Compound 2k, 5-Allyl-6-benzyl-2-(tetrahydro-2-oxofuran-3-ylthio)pyrimidin-4(3H)-one] |  |  |  | 153 to 155 | activity against HIV-1 replication (in words) (HIV-1): inactive
C=CCc1c(Cc2ccccc2)nc(SCC(=O)OC)[nH]c1=O [Compound 3a, 5-Allyl-6-benzyl-2-(methylacetatethio)pyrimidin-4(3H)-one] | 35 | >2 | > 100 | 117 to 119 | 
C=CCc1c(Cc2ccccc2)nc(SCC(=O)OCC)[nH]c1=O [Compound 3b, 5-Allyl-6-benzyl-2-(ethylacetatethio)pyrimidin-4(3H)-one] |  |  |  | 118 to 120 | activity against HIV-1 replication (in words) (HIV-1): inactive
C=CCc1c(Cc2ccccc2)nc(SCC(=O)NC)[nH]c1=O [Compound 4, 2-(5-Allyl-4-benzyl-1,6-dihydro-6-oxopyrimidin-2-ylthio)-N-methylacetamide] |  |  |  |  | activity against HIV-1 replication (in words) (HIV-1): inactive
C=CCc1c(Cc2ccccc2)nc(SC2CCCCC2)[nH]c1=O [Compound 6, 5-Allyl 6-benzyl-2-(cyclohexylthio)pyrimidin-4(3H)-one] |  |  |  | 138 to 140 | 
O=c1[nH]c([S+]([O-])C2CCCCC2)nc(Cc2ccccc2)c1CC1CO1 (stereo not shown) [Compound 7, 6-Benzyl-2-(cyclohexylsulfinyl)-5-((oxiran-2-yl)methyl)pyrimidin-4(3H)-one] |  |  |  | 190 to 192 | 
C=CCc1c(Cc2ccccc2)nc(SC2CCCCC2)[nH]c1=S [Compound 8, 5-Allyl-6-benzyl-2-(cyclohexylthio)pyrimidine-4(3H)-thione] | 3.9 | >25 | > 100 | 143 to 145 | 
C=CCc1c(Cc2ccccc2)nc(SCC(OCC)OCC)[nH]c1=O [Compound 9, 5-Allyl 6-benzyl-2-(2,2-diethoxyethylthio)pyrimidin-4(3H)-one] |  |  |  | 156 to 158 | activity against HIV-1 replication (in words) (HIV-1): inactive
C=CCc1c(Cc2ccccc2)n2c(nc1=O)SCC2OCC (stereo not shown) [Compound 10, 6-Allyl-5-benzyl-3-ethoxy-2,3-dihydrothiazolo[3,2-a]pyrimidin-7-one] |  |  |  | 162 to 164 | 
C=CCc1c(Cc2ccccc2)nc(SCSC)[nH]c1=O [Compound 11a, 2-((Methylthio)methylthio)-5-allyl-6-benzylpyrimidin-4(3H)-one] | 3.16 | >31 | > 100 | 218 to 220 | 
C=CCc1c(Cc2ccccc2)nc(SCOCC)[nH]c1=O [Compound 11b, 5-Allyl-6-benzyl-2-(ethoxymethylthio)pyrimidin-4(3H)-one] |  |  |  | 142 to 144 | 
C=CCc1c(Cc2ccccc2)nc(SCCCO)[nH]c1=O [Compound 11c, 2-(3-Hydroxypropylthio)-5-allyl-6-benzylpyrimidin-4(3H)-one] | 0.32 | >312 | > 100 | 123 to 125 | EC50 (HIV-1): 0.32 µM
CCOCn1c(Cc2ccccc2)c(C(C)C)c(=O)[nH]c1=O [MKC-442, 6-benzyl-1-(ethoxymethyl)-5-isopropylpyrimidine-2,4-dione, reference compound] | 0.005 | 28,000 | 141 |  | 
